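Grown in 96-well plates, cells were treated for 48 hours with each compound at five concentrations. Insufficient inhibition: endpoint recorded as highest concentration tested. Here, GI50 denotes the concentration required for 50% inhibition of growth. The concentration for full growth arrest is given as TGI.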 A value given as a limit tells only on which side of the number the result lay.

Some test systems named below: A549 NSCLC; DU-145 prostate; HCT-15 colon; M14 melanoma; MCF7 breast; NCI-H226 lung; NCI-H460 lung; OVCAR-3 ovarian; SF-268 CNS; UACC-62 melanoma.
Common to all, as to test: NCI anticancer screen, dose series, 48 h

With `COc1ccc(/C=N/NC(=O)c2ccccc2Nc2ccccc2C(=O)N/N=C/c2ccc(OC)c(OC)c2)cc1OC`, the TGI in the assay on A549 NSCLC, in the assay on DU-145 prostate, in the assay with HCT-15 colon, in the assay with M14 melanoma, with MCF7 breast and in the assay with NCI-H226 lung was above 100 µM throughout. The TGI with NCI-H460 lung, in the assay on OVCAR-3 ovarian, with SF-268 CNS and with UACC-62 melanoma was above 100 µM in each case.
As to `CN(C)/C=C/c1ccnc2c1C(=O)c1ccccc1C2=O`, the TGI with A549 NSCLC is above 56.7 µM; with DU-145 prostate it was 3.41 µM; with HCT-15 colon it was 31.5 µM; with M14 melanoma it was 4.16 µM; in the assay on MCF7 breast, above 44.7 µM; in the assay on NCI-H226 lung, above 52.7 µM. The TGI was 7.13 µM in the assay with NCI-H460 lung, above 100 µM in the assay on OVCAR-3 ovarian, above 69 µM in the assay with SF-268 CNS and 2.9 µM in the assay with UACC-62 melanoma.
For `C[C@H]1C(=O)C2=C[C@H]1CCC(=O)[C@]1(C)CCCC(C)(C)[C@H]1C[C@H]2O`, the TGI was 43.6 µM with A549 NSCLC; 96.8 µM in the assay on DU-145 prostate; 34.3 µM in the assay on HCT-15 colon; 25.9 µM with M14 melanoma; 27.3 µM with MCF7 breast; 84.3 µM in the assay on NCI-H226 lung. Moreover, the TGI is 58.9 µM with NCI-H460 lung, 84.9 µM in the assay on OVCAR-3 ovarian, 64 µM in the assay on SF-268 CNS and above 100 µM in the assay with UACC-62 melanoma.
Consider `COc1cccc2c(NNc3ccc(Cl)cc3)c3ccc([N+](=O)[O-])cc3nc12`, for which the TGI in the assay on A549 NSCLC was 28.4 µM; in the assay with DU-145 prostate, 53.5 µM; with HCT-15 colon, 27.3 µM; in the assay on M14 melanoma, 41.6 µM; in the assay on MCF7 breast, above 100 µM; in the assay with NCI-H226 lung, 36.8 µM. Besides, the TGI with NCI-H460 lung is 17.2 µM; in the assay with OVCAR-3 ovarian, 36.3 µM; in the assay on SF-268 CNS, 28.1 µM; in the assay on UACC-62 melanoma it was 26.3 µM.
Consider `O=c1n(CCO)nc2n1CCCN2`, for which the TGI with A549 NSCLC, in the assay with DU-145 prostate, in the assay on HCT-15 colon, with M14 melanoma, in the assay on MCF7 breast and in the assay on NCI-H226 lung was above 100 µM in each case. For the same molecule, the TGI in the assay with NCI-H460 lung, in the assay on OVCAR-3 ovarian, with SF-268 CNS and in the assay with UACC-62 melanoma was above 100 µM each time.
In the case of `N#Cc1c(C#N)c(-c2ccco2)n(/N=C/c2ccco2)c1N`, the TGI with A549 NSCLC was above 100 µM; in the assay with DU-145 prostate, above 100 µM; in the assay on HCT-15 colon, above 100 µM; in the assay on M14 melanoma it was above 100 µM; in the assay with MCF7 breast, above 100 µM; with NCI-H226 lung it was 66.2 µM. Moreover, the TGI in the assay with NCI-H460 lung, in the assay on OVCAR-3 ovarian, in the assay with SF-268 CNS and in the assay with UACC-62 melanoma was above 100 µM throughout.
With `COC(=O)c1ccc2[nH]c3c(c2c1)CC(=O)Nc1ccccc1-3`, the TGI with A549 NSCLC, in the assay with DU-145 prostate, in the assay on HCT-15 colon, in the assay on M14 melanoma, in the assay with MCF7 breast and in the assay with NCI-H226 lung was above 100 µM each time. The TGI in the assay with NCI-H460 lung, in the assay on OVCAR-3 ovarian, with SF-268 CNS and in the assay on UACC-62 melanoma was above 100 µM each time.
In the case of `O=C(C(=O)n1ccc2ccccc21)c1c[nH]c2ccccc12`, the TGI in the assay with A549 NSCLC, in the assay on DU-145 prostate, in the assay with HCT-15 colon, with M14 melanoma, in the assay on MCF7 breast and with NCI-H226 lung was above 10 µM each time. Moreover, the TGI with NCI-H460 lung, in the assay with OVCAR-3 ovarian, in the assay with SF-268 CNS and in the assay on UACC-62 melanoma was above 10 µM throughout.
Regarding `COc1cccc(C(=O)C(O)c2cccc(OC)c2OC)c1OC` (stereo not given), the TGI with A549 NSCLC, in the assay with DU-145 prostate, in the assay with HCT-15 colon, in the assay with M14 melanoma, in the assay with MCF7 breast and in the assay on NCI-H226 lung was above 100 µM each time. The TGI with NCI-H460 lung, with OVCAR-3 ovarian, in the assay with SF-268 CNS and in the assay on UACC-62 melanoma was above 100 µM in each case.
For `O=C(CSCC(=O)N/N=C\c1cc(Br)cc(Br)c1O)N/N=C\c1cc(Br)cc(Br)c1O`, the TGI in the assay on A549 NSCLC was above 100 µM; in the assay with DU-145 prostate it was above 100 µM; in the assay with HCT-15 colon, above 100 µM; with M14 melanoma, 34.8 µM; in the assay with MCF7 breast, above 100 µM; with NCI-H226 lung, 58.2 µM. Besides, the TGI was above 100 µM in the assay with NCI-H460 lung, 93.8 µM with OVCAR-3 ovarian, 58.2 µM in the assay with SF-268 CNS and 39.7 µM in the assay with UACC-62 melanoma.
As to `COc1ccc2c(c1)CCC1C2CCC2(C)C1CC[C@@]2(O)CNC(=O)/C=C/c1ccc(O)c(O)c1` (stereo not given in full), the GI50 in the assay with A549 NSCLC is 3.95 µM; in the assay with DU-145 prostate, 3.11 µM; in the assay with HCT-15 colon, 1.49 µM; in the assay on M14 melanoma, 2.59 µM; with MCF7 breast it was 3.66 µM; in the assay on NCI-H226 lung it was 9.76 µM. For the same molecule, the GI50 with NCI-H460 lung was 2.69 µM; in the assay with OVCAR-3 ovarian, 2.56 µM; in the assay on SF-268 CNS, 2.97 µM; in the assay on UACC-62 melanoma, 2.24 µM. For the same molecule, the TGI in the assay on A549 NSCLC is 29.3 µM; in the assay with DU-145 prostate it was above 100 µM; in the assay on HCT-15 colon it was 4.99 µM; in the assay with M14 melanoma, 7.42 µM; with MCF7 breast it was above 100 µM; in the assay on NCI-H226 lung, 35.3 µM. Moreover, the TGI in the assay on NCI-H460 lung was above 100 µM; with OVCAR-3 ovarian, 67.3 µM; with SF-268 CNS, above 100 µM; in the assay on UACC-62 melanoma it was 5.63 µM.
Turning to `NC(N)=NS(=O)(=O)c1ccc(NC(=O)c2c3ccccc3nc3ccccc23)cc1`, the TGI in the assay on A549 NSCLC, in the assay on DU-145 prostate, in the assay with HCT-15 colon, in the assay on M14 melanoma, in the assay on MCF7 breast and in the assay on NCI-H226 lung was above 100 µM throughout. The TGI with NCI-H460 lung, with OVCAR-3 ovarian, in the assay on SF-268 CNS and in the assay on UACC-62 melanoma was above 100 µM in each case.
As to `COc1cc(C2c3cc4c(c(O)c3C(=O)C3CCC(=O)N32)OCO4)cc(OC)c1OC` (stereo not given), the TGI in the assay on A549 NSCLC, in the assay with DU-145 prostate, with HCT-15 colon, in the assay on M14 melanoma, in the assay with MCF7 breast and in the assay with NCI-H226 lung was above 100 µM throughout. Further, the TGI in the assay with NCI-H460 lung, with OVCAR-3 ovarian, in the assay with SF-268 CNS and with UACC-62 melanoma was above 100 µM in each case.
For the molecule `C[N+]12C=CC=C1C(N1CCCC1)c1sc(-c3ccc(Cl)cc3)cc12` (stereo not given), the TGI in the assay with A549 NSCLC was found to be 87.6 µM; in the assay on DU-145 prostate, 32.6 µM; in the assay on HCT-15 colon, 90.5 µM; with M14 melanoma, 30.9 µM; in the assay with MCF7 breast, 28.3 µM; with NCI-H226 lung, 35.3 µM. Moreover, the TGI came to 32.6 µM in the assay on NCI-H460 lung, 26.5 µM with OVCAR-3 ovarian, 34.3 µM in the assay on SF-268 CNS and 28.4 µM with UACC-62 melanoma.
With `Clc1ccc(CCn2ccc3ccccc32)c(Cl)c1`, the TGI in the assay on A549 NSCLC, in the assay on DU-145 prostate, in the assay with HCT-15 colon, with M14 melanoma, in the assay with MCF7 breast and with NCI-H226 lung was above 100 µM throughout. Further, the TGI in the assay with NCI-H460 lung, with OVCAR-3 ovarian, in the assay with SF-268 CNS and in the assay on UACC-62 melanoma was above 100 µM each time.
In the case of `Cc1ccc(-c2cn3c(nc4ccccc43)c(C)n2)cc1`, the TGI in the assay with A549 NSCLC, in the assay on DU-145 prostate, in the assay on HCT-15 colon, in the assay on M14 melanoma, in the assay on MCF7 breast and in the assay on NCI-H226 lung was above 100 µM throughout. The TGI in the assay with NCI-H460 lung was above 100 µM; in the assay on OVCAR-3 ovarian, above 100 µM; in the assay on SF-268 CNS, above 100 µM; in the assay with UACC-62 melanoma, above 81.3 µM.
For the molecule `CCC1(CC)C(=O)N(C(=O)c2ccc(Cl)cc2)N(C(=O)c2ccccc2Cl)C1=O`, the TGI is above 100 µM in the assay with A549 NSCLC; above 100 µM with DU-145 prostate; above 100 µM in the assay on HCT-15 colon; above 100 µM in the assay on M14 melanoma; above 100 µM in the assay with MCF7 breast; 31.5 µM with NCI-H226 lung. The TGI is 41.8 µM in the assay with NCI-H460 lung, above 100 µM with OVCAR-3 ovarian, above 100 µM with SF-268 CNS and above 100 µM in the assay on UACC-62 melanoma.
With `CCCCCCc1cc2cc(C(=O)Nc3cccc(C(F)(F)F)c3)c(=N)oc2cc1O`, the TGI amounted to 10.9 µM with A549 NSCLC; 3.3 µM in the assay with DU-145 prostate; 4.36 µM with HCT-15 colon; 6.18 µM in the assay on M14 melanoma; 6.47 µM in the assay on MCF7 breast; 3.52 µM in the assay on NCI-H226 lung. Also, the TGI in the assay with NCI-H460 lung is above 32.1 µM; in the assay on OVCAR-3 ovarian it was 10.7 µM; in the assay on SF-268 CNS, 19.1 µM; in the assay on UACC-62 melanoma, 6.02 µM.
Take `Clc1ccc(CCN2CCN(CCCc3ccccc3)CC2)cc1Cl`: the TGI is 29.9 µM in the assay on A549 NSCLC; 30.4 µM in the assay with DU-145 prostate; 27.8 µM in the assay with HCT-15 colon; 28.1 µM in the assay on M14 melanoma; 33.8 µM in the assay on MCF7 breast; 38 µM in the assay with NCI-H226 lung. Besides, the TGI is 33.5 µM in the assay with NCI-H460 lung, 30.9 µM in the assay with OVCAR-3 ovarian, 35.3 µM in the assay with SF-268 CNS and 31.5 µM with UACC-62 melanoma.

Values taken from PubChem BioAssay (NCI).
